Starred links: 1 amine or outer side, 2 acyl side, 3 side chain; linkers in the order of their positions; H or OH if unused. Positions of bridges follow the written chain, without caps; N, C: chain ends. Non-standard residues stand in square brackets, D forms with d. Residues, ends and D or L forms follow the SMILES beside them. Groups on a side chain read outwards from the residue. *: point of attachment. C18 diacid = O=C(O)CCCCCCCCCCCCCCCCC(=O)*; γGlu = O=C(O)[C@H](CCC(=O)[*:2])N[*:1]; Palmitoyl = CCCCCCCCCCCCCCCC(=O)*; X5 = O=C(O)CCCCCCCCCCCC(=O)*; AEEA = NCCOCCOCC(=O)O

This data set is described as follows: in vivo. Details: species or system Sprague-Dawley rats. As to conditions: rat, iv, 0.033 mg/kg. The method in brief: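 Peptide plasma levels measured by UPLC-MS/MS (C18, product-ion monitoring) after protein precipitation or WCX SPE, calibrated in K2EDTA/protease-inhibitor rat plasma. Dosing in non-fasted male Sprague-Dawley rats (n=3): 0.033 mg/kg over 1 h by IV or SC infusion, or 0.3 mg/kg SC bolus; sampling up to 48 h.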
Consider `CC[C@H](C)[C@H](NC(=O)[C@@H]1CCCN1C(=O)CNC(=O)[C@H](Cc1ccccc1)NC(=O)[C@H](CC(N)=O)NC(=O)[C@H](CC(N)=O)NC(=O)[C@H](CO)NC(=O)[C@H](CO)NC(=O)[C@H](CCCCN)NC(=O)[C@H](Cc1c[nH]cn1)NC(=O)[C@H](CC(C)C)NC(=O)[C@H](CCCCNC(=O)CCCCCCCCCCCC(=O)O)NC(=O)[C@H](CC(N)=O)NC(=O)[C@H](C)NC(=O)[C@H](CC(C)C)NC(=O)[C@H](CCCNC(=N)N)NC(=O)[C@H](CCC(N)=O)NC(=O)[C@@H](NC(=O)[C@H](C)NC(=O)[C@@H]1CSSC[C@H](NC(=O)[C@@H](N)CO)C(=O)N[C@@H](CC(N)=O)C(=O)N[C@@H]([C@@H](C)O)C(=O)N[C@@H](CO)C(=O)N[C@@H]([C@@H](C)O)C(=O)N1)[C@@H](C)O)C(=O)N[C@@H](CC(C)C)C(=O)N1CCC[C@H]1C(=O)N1CCC[C@H]1C(=O)N[C@H](C(=O)N[C@@H](CCCCN)C(=O)N[C@H](C(=O)NCC(=O)N[C@@H](CO)C(=O)N[C@@H](CCC(=O)O)C(=O)N[C@H](C(=O)N[C@@H](Cc1ccc(O)cc1)C(N)=O)[C@@H](C)O)C(C)C)[C@@H](C)O` [Compound A31] (H-SCNTSTCATQRLANK(X5)LHKSSNNFGPILPPTKVGSETY-NH2; disulfide 2-7), for which the Vd was 0.57 L/kg, the clearance was determined as 18.9 mL/min/kg and the half-life is 0.404 h.
The like results for `CC[C@H](C)[C@H](NC(=O)[C@@H]1CCCN1C(=O)CNC(=O)[C@H](Cc1ccccc1)NC(=O)[C@H](CC(N)=O)NC(=O)[C@H](CC(N)=O)NC(=O)[C@H](CO)NC(=O)[C@H](CO)NC(=O)[C@H](CCCCN)NC(=O)[C@H](Cc1c[nH]cn1)NC(=O)[C@@H](CCCCNC(=O)CC[C@H](NC(=O)CC[C@H](NC(=O)CC[C@H](NC(=O)CCCCCCCCCCCCCCCCC(=O)O)C(=O)O)C(=O)O)C(=O)O)NC(=O)[C@H](CCC(=O)O)NC(=O)[C@H](CC(N)=O)NC(=O)[C@H](C)NC(=O)[C@H](CC(C)C)NC(=O)[C@H](CCCNC(=N)N)NC(=O)[C@H](CCC(N)=O)NC(=O)[C@@H](NC(=O)[C@H](C)NC(=O)[C@@H]1CSSC[C@H](NC(=O)[C@@H](N)CO)C(=O)N[C@@H](CC(N)=O)C(=O)N[C@@H]([C@@H](C)O)C(=O)N[C@@H](CO)C(=O)N[C@@H]([C@@H](C)O)C(=O)N1)[C@@H](C)O)C(=O)N[C@@H](CC(C)C)C(=O)N1CCC[C@H]1C(=O)N1CCC[C@H]1C(=O)N[C@H](C(=O)N[C@@H](CCCCN)C(=O)N[C@H](C(=O)NCC(=O)N[C@@H](CO)C(=O)N[C@@H](CCC(=O)O)C(=O)N[C@H](C(=O)N[C@@H](Cc1ccc(O)cc1)C(N)=O)[C@@H](C)O)C(C)C)[C@@H](C)O` [Compound A104] (H-SCNTSTCATQRLANE[dK]([γGlu-γGlu-γGlu-C18 diacid])HKSSNNFGPILPPTKVGSETY-NH2; disulfide 2-7) were, in that order, 0.137 L/kg, 0.108 mL/min/kg and 16.6 h.
On to `CC[C@H](C)[C@H](NC(=O)[C@@H]1CCCN1C(=O)CNC(=O)[C@H](Cc1ccccc1)NC(=O)[C@H](CC(N)=O)NC(=O)[C@H](CC(N)=O)NC(=O)[C@H](CO)NC(=O)[C@H](CO)NC(=O)[C@H](CCCCN)NC(=O)[C@H](Cc1c[nH]cn1)NC(=O)[C@H](CC(C)C)NC(=O)[C@H](CCCCNC(=O)CCCCCCCCCCCCCCCCC(=O)O)NC(=O)[C@H](CC(N)=O)NC(=O)[C@H](C)NC(=O)[C@H](CC(C)C)NC(=O)[C@H](CCCNC(=N)N)NC(=O)[C@H](CCC(N)=O)NC(=O)[C@@H](NC(=O)[C@H](C)NC(=O)[C@@H]1CSSC[C@H](NC(=O)[C@@H](N)CO)C(=O)N[C@@H](CC(N)=O)C(=O)N[C@@H]([C@@H](C)O)C(=O)N[C@@H](CO)C(=O)N[C@@H]([C@@H](C)O)C(=O)N1)[C@@H](C)O)C(=O)N[C@@H](CC(C)C)C(=O)N1CCC[C@H]1C(=O)N1CCC[C@H]1C(=O)N[C@H](C(=O)N[C@@H](CCCCN)C(=O)N[C@H](C(=O)NCC(=O)N[C@@H](CO)C(=O)N[C@@H](CCC(=O)O)C(=O)N[C@H](C(=O)N[C@@H](Cc1ccc(O)cc1)C(N)=O)[C@@H](C)O)C(C)C)[C@@H](C)O` [Compound A83] (H-SCNTSTCATQRLANK(C18 diacid)LHKSSNNFGPILPPTKVGSETY-NH2; disulfide 2-7), for which the Vd came to 0.123 L/kg, the clearance was determined as 0.499 mL/min/kg and the half-life is 4.06 h.
`CCCCCCCCCCCCCCCC(=O)N[C@@H](CCC(=O)N[C@@H](CCC(=O)NCCCC[C@@H](NC(=O)[C@H](Cc1ccccc1)NC(=O)[C@H](CC(N)=O)NC(=O)[C@H](C)NC(=O)[C@H](CC(C)C)NC(=O)[C@H](CCCNC(=N)N)NC(=O)[C@H](CCC(N)=O)NC(=O)[C@@H](NC(=O)[C@H](C)NC(=O)[C@@H]1CSSC[C@H](NC(=O)[C@@H](N)CO)C(=O)N[C@@H](CC(N)=O)C(=O)N[C@@H]([C@@H](C)O)C(=O)N[C@@H](CO)C(=O)N[C@@H]([C@@H](C)O)C(=O)N1)[C@@H](C)O)C(=O)N[C@@H](Cc1c[nH]cn1)C(=O)N[C@@H](CCCCN)C(=O)N[C@@H](CO)C(=O)N[C@@H](CO)C(=O)N[C@@H](CC(N)=O)C(=O)N[C@@H](CC(N)=O)C(=O)N[C@@H](Cc1ccccc1)C(=O)NCC(=O)N1CCC[C@H]1C(=O)N[C@H](C(=O)N[C@@H](CC(C)C)C(=O)N1CCC[C@H]1C(=O)N1CCC[C@H]1C(=O)N[C@H](C(=O)N[C@@H](CCCCN)C(=O)N[C@H](C(=O)NCC(=O)N[C@@H](CO)C(=O)N[C@@H](CCC(=O)O)C(=O)N[C@H](C(=O)N[C@@H](Cc1ccc(O)cc1)C(N)=O)[C@@H](C)O)C(C)C)[C@@H](C)O)[C@@H](C)CC)C(=O)O)C(=O)O` [Compound A70] (H-SCNTSTCATQRLANF[dK]([γGlu-γGlu-Palmitoyl])HKSSNNFGPILPPTKVGSETY-NH2; disulfide 2-7) had a Vd of 0.187 L/kg, a clearance of 3.08 mL/min/kg and a half-life of 0.752 h.
For `CC[C@H](C)[C@H](NC(=O)[C@@H]1CCCN1C(=O)CNC(=O)[C@H](Cc1ccccc1)NC(=O)[C@H](CC(N)=O)NC(=O)[C@H](CC(N)=O)NC(=O)[C@H](CO)NC(=O)[C@H](CO)NC(=O)[C@H](CCCCN)NC(=O)[C@H](Cc1c[nH]cn1)NC(=O)[C@H](CC(C)C)NC(=O)[C@H](CCCCNC(=O)CC[C@H](NC(=O)CC[C@H](NC(=O)CCCCCCCCCCCCCCCCC(=O)O)C(=O)O)C(=O)O)NC(=O)[C@H](CC(N)=O)NC(=O)[C@H](C)NC(=O)[C@H](CC(C)C)NC(=O)[C@H](CCCNC(=N)N)NC(=O)[C@H](CCC(N)=O)NC(=O)[C@@H](NC(=O)[C@H](C)NC(=O)[C@@H]1CSSC[C@H](NC(=O)[C@@H](N)CO)C(=O)N[C@@H](CC(N)=O)C(=O)N[C@@H]([C@@H](C)O)C(=O)N[C@@H](CO)C(=O)N[C@@H]([C@@H](C)O)C(=O)N1)[C@@H](C)O)C(=O)N[C@@H](CC(C)C)C(=O)N1CCC[C@H]1C(=O)N1CCC[C@H]1C(=O)N[C@H](C(=O)N[C@@H](CCCCN)C(=O)N[C@H](C(=O)NCC(=O)N[C@@H](CO)C(=O)N[C@@H](CCC(=O)O)C(=O)N[C@H](C(=O)N[C@@H](Cc1ccc(O)cc1)C(N)=O)[C@@H](C)O)C(C)C)[C@@H](C)O` [Compound A87] (H-SCNTSTCATQRLANK([γGlu-γGlu-C18 diacid])LHKSSNNFGPILPPTKVGSETY-NH2; disulfide 2-7) the same measures were 0.143 L/kg, 0.108 mL/min/kg and 17.7 h.
The like results for `CCCCCCCCCCCCCCCC(=O)N[C@@H](CCC(=O)NCCOCCOCC(=O)NCCOCCOCC(=O)N[C@@H](CCC(=O)N[C@@H](CCC(=O)NCCCC[C@H](NC(=O)[C@H](CCC(=O)O)NC(=O)[C@H](CC(N)=O)NC(=O)[C@H](C)NC(=O)[C@H](CC(C)C)NC(=O)[C@H](CCCNC(=N)N)NC(=O)[C@H](CCC(N)=O)NC(=O)[C@@H](NC(=O)[C@H](C)NC(=O)[C@@H]1CSSC[C@H](NC(=O)[C@@H](N)CO)C(=O)N[C@@H](CC(N)=O)C(=O)N[C@@H]([C@@H](C)O)C(=O)N[C@@H](CO)C(=O)N[C@@H]([C@@H](C)O)C(=O)N1)[C@@H](C)O)C(=O)N[C@@H](Cc1c[nH]cn1)C(=O)N[C@@H](CCCCN)C(=O)N[C@@H](CO)C(=O)N[C@@H](CO)C(=O)N[C@@H](CC(N)=O)C(=O)N[C@@H](CC(N)=O)C(=O)N[C@@H](Cc1ccccc1)C(=O)NCC(=O)N1CCC[C@H]1C(=O)N[C@H](C(=O)N[C@@H](CC(C)C)C(=O)N1CCC[C@H]1C(=O)N1CCC[C@H]1C(=O)N[C@H](C(=O)N[C@@H](CCCCN)C(=O)N[C@H](C(=O)NCC(=O)N[C@@H](CO)C(=O)N[C@@H](CCC(=O)O)C(=O)N[C@H](C(=O)N[C@@H](Cc1ccc(O)cc1)C(N)=O)[C@@H](C)O)C(C)C)[C@@H](C)O)[C@@H](C)CC)C(=O)O)C(=O)O)C(=O)O` [Compound A122] (H-SCNTSTCATQRLANEK([γGlu-γGlu-AEEA-AEEA-γGlu-Palmitoyl])HKSSNNFGPILPPTKVGSETY-NH2; disulfide 2-7; N-terminus assumed) were, in that order, 0.763 L/kg, 1.95 mL/min/kg and 5.13 h.
For `CCCCCCCCCCCCCCCC(=O)N[C@@H](CCC(=O)N[C@@H](CCC(=O)N[C@@H](CCC(=O)N[C@@H](CCC(=O)NCCCC[C@H](NC(=O)[C@H](CCC(=O)O)NC(=O)[C@H](CC(N)=O)NC(=O)[C@H](C)NC(=O)[C@H](CC(C)C)NC(=O)[C@H](CCCNC(=N)N)NC(=O)[C@H](CCC(N)=O)NC(=O)[C@@H](NC(=O)[C@H](C)NC(=O)[C@@H]1CSSC[C@H](NC(=O)[C@@H](N)CO)C(=O)N[C@@H](CC(N)=O)C(=O)N[C@@H]([C@@H](C)O)C(=O)N[C@@H](CO)C(=O)N[C@@H]([C@@H](C)O)C(=O)N1)[C@@H](C)O)C(=O)N[C@@H](Cc1c[nH]cn1)C(=O)N[C@@H](CCCCN)C(=O)N[C@@H](CO)C(=O)N[C@@H](CO)C(=O)N[C@@H](CC(N)=O)C(=O)N[C@@H](CC(N)=O)C(=O)N[C@@H](Cc1ccccc1)C(=O)NCC(=O)N1CCC[C@H]1C(=O)N[C@H](C(=O)N[C@@H](CC(C)C)C(=O)N1CCC[C@H]1C(=O)N1CCC[C@H]1C(=O)N[C@H](C(=O)N[C@@H](CCCCN)C(=O)N[C@H](C(=O)NCC(=O)N[C@@H](CO)C(=O)N[C@@H](CCC(=O)O)C(=O)N[C@H](C(=O)N[C@@H](Cc1ccc(O)cc1)C(N)=O)[C@@H](C)O)C(C)C)[C@@H](C)O)[C@@H](C)CC)C(=O)O)C(=O)O)C(=O)O)C(=O)O` [Compound A21] (H-SCNTSTCATQRLANEK([γGlu-γGlu-γGlu-γGlu-Palmitoyl])HKSSNNFGPILPPTKVGSETY-NH2; disulfide 2-7) the same measures were 0.131 L/kg, 0.178 mL/min/kg and 10.4 h.

In general, Vd refers to the apparent volume that relates the amount in the body to the concentration in plasma or blood. Lower therefore signals confinement near the circulation. Broadly, the clearance is the volume of plasma or blood freed of the substance per unit of time. A low value points to inefficient removal. Usually half-life stands for how long it takes for the measured level to halve. Read a high half-life as slow loss.
